Test system: K24384-001-R-PDC complex spheroid growth
Experiment: Anticancer human tumor K24384-001-R-PDC patient-derived pancreatic adenocarcinoma cell line growth inhibition [AhR]
Conditions: for IC50: curve of first compound; for viability, T/C: stronger effect = lower value
Method in brief: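 Agents were dosed in half-log steps down from roughly clinical Cmax, or from 10 microM where Cmax was unknown, alone and with AhR antagonists. Read-out: percent test/control growth of tumor spheroids containing HUVEC and MSC stromal cells.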

[1] = second compound 0.1 µM, first compound 0.0316 µM
[2] = second compound 0.1 µM, first compound 0.1 µM
[3] = second compound 0.1 µM, first compound 0.316 µM
[4] = second compound 0.1 µM, first compound 1 µM
[5] = second compound 0.1 µM, first compound 3.16 µM
[6] = second compound 0.1 µM, first compound 10 µM
[7] = second compound 0.316 µM, first compound 0.0316 µM
[8] = second compound 0.316 µM, first compound 0.1 µM
[9] = second compound 0.316 µM, first compound 0.316 µM
[10] = second compound 0.316 µM, first compound 1 µM
[11] = second compound 0.316 µM, first compound 3.16 µM
[12] = second compound 0.316 µM, first compound 10 µM
[13] = second compound 1 µM, first compound 0.0316 µM
[14] = second compound 1 µM, first compound 0.1 µM
[15] = second compound 1 µM, first compound 0.316 µM
[16] = second compound 1 µM, first compound 1 µM
[17] = second compound 1 µM, first compound 3.16 µM
[18] = second compound 1 µM, first compound 10 µM
[19] = second compound 3.16 µM, first compound 0.0316 µM
[20] = second compound 3.16 µM, first compound 0.1 µM
[21] = second compound 3.16 µM, first compound 0.316 µM
[22] = second compound 3.16 µM, first compound 1 µM
[23] = second compound 3.16 µM, first compound 3.16 µM
[24] = second compound 3.16 µM, first compound 10 µM
[25] = second compound 10 µM, first compound 0.0316 µM
[26] = second compound 10 µM, first compound 0.1 µM
[27] = second compound 10 µM, first compound 0.316 µM
[28] = second compound 10 µM, first compound 1 µM
[29] = second compound 10 µM, first compound 3.16 µM
[30] = second compound 10 µM, first compound 10 µM
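Throughout, for viability, T/C: percent of DMSO vehicle-treated spheroid viability set as 100%.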

**Q.** Which results are given for CC1(C)CCC(CN2CCN(c3ccc(C(=O)NS(=O)(=O)c4ccc(NCC5CCOCC5)c([N+](=O)[O-])c4)c(Oc4cnc5[nH]ccc5c4)c3)CC2)=C(c2ccc(Cl)cc2)C1 + Cc1cncc(-c2nc(NCCc3c[nH]c4ccccc34)c3ncn(C(C)C)c3n2)c1?
**A.** IC50 (second compound 0.1 µM): 6200 nM; IC50 (second compound 0.316 µM): 5760 nM; IC50 (second compound 1 µM): 7200 nM; IC50 (second compound 3.16 µM): 7670 nM; IC50 (second compound 10 µM): < 31.6 nM; viability, T/C [1]: 137%; viability, T/C [2]: 128%; viability, T/C [3]: 129%; viability, T/C [4]: 86.7%; viability, T/C [5]: 101%; viability, T/C [6]: 22%; viability, T/C [7]: 134%; viability, T/C [8]: 140%; viability, T/C [9]: 126%; viability, T/C [10]: 95.5%; viability, T/C [11]: 92.7%; viability, T/C [12]: 18.6%; viability, T/C [13]: 117%; viability, T/C [14]: 157%; viability, T/C [15]: 137%; viability, T/C [16]: 122%; viability, T/C [17]: 119%; viability, T/C [18]: 23.1%; viability, T/C [19]: 116%; viability, T/C [20]: 148%; viability, T/C [21]: 138%; viability, T/C [22]: 119%; viability, T/C [23]: 124%; viability, T/C [24]: 27.5%; viability, T/C [25]: 20.5%; viability, T/C [26]: 21%; viability, T/C [27]: 16.6%; viability, T/C [28]: 19.1%; viability, T/C [29]: 19.9%; viability, T/C [30]: 25%

**Q.** What does the source list for CCN(c1cc(-c2ccc(CN3CCOCC3)cc2)cc(C(=O)NCc2c(C)cc(C)[nH]c2=O)c1C)C1CCOCC1 + Cc1cncc(-c2nc(NCCc3c[nH]c4ccccc34)c3ncn(C(C)C)c3n2)c1?
**A.** IC50 (second compound 0.1 µM): > 3000 nM; IC50 (second compound 0.316 µM): > 3000 nM; IC50 (second compound 1 µM): > 3000 nM; IC50 (second compound 3.16 µM): > 3000 nM; IC50 (second compound 10 µM): < 9.49 nM; viability, T/C (second compound 0.1 µM, first compound 0.00949 µM): 118%; viability, T/C (second compound 0.1 µM, first compound 0.03 µM): 126%; viability, T/C (second compound 0.1 µM, first compound 0.0949 µM): 129%; viability, T/C (second compound 0.1 µM, first compound 0.3 µM): 115%; viability, T/C (second compound 0.1 µM, first compound 0.949 µM): 130%; viability, T/C (second compound 0.1 µM, first compound 3 µM): 133%; viability, T/C (second compound 0.316 µM, first compound 0.00949 µM): 138%; viability, T/C (second compound 0.316 µM, first compound 0.03 µM): 139%; viability, T/C (second compound 0.316 µM, first compound 0.0949 µM): 150%; viability, T/C (second compound 0.316 µM, first compound 0.3 µM): 132%; viability, T/C (second compound 0.316 µM, first compound 0.949 µM): 120%; viability, T/C (second compound 0.316 µM, first compound 3 µM): 108%; viability, T/C (second compound 1 µM, first compound 0.00949 µM): 126%; viability, T/C (second compound 1 µM, first compound 0.03 µM): 150%; viability, T/C (second compound 1 µM, first compound 0.0949 µM): 144%; viability, T/C (second compound 1 µM, first compound 0.3 µM): 133%; viability, T/C (second compound 1 µM, first compound 0.949 µM): 128%; viability, T/C (second compound 1 µM, first compound 3 µM): 120%; viability, T/C (second compound 3.16 µM, first compound 0.00949 µM): 116%; viability, T/C (second compound 3.16 µM, first compound 0.03 µM): 101%; viability, T/C (second compound 3.16 µM, first compound 0.0949 µM): 120%; viability, T/C (second compound 3.16 µM, first compound 0.3 µM): 113%; viability, T/C (second compound 3.16 µM, first compound 0.949 µM): 101%; viability, T/C (second compound 3.16 µM, first compound 3 µM): 96.1%; viability, T/C (second compound 10 µM, first compound 0.00949 µM): 18.7%; viability, T/C (second compound 10 µM, first compound 0.03 µM): 17.1%; viability, T/C (second compound 10 µM, first compound 0.0949 µM): 17.3%; viability, T/C (second compound 10 µM, first compound 0.3 µM): 11.9%; viability, T/C (second compound 10 µM, first compound 0.949 µM): 10.1%; viability, T/C (second compound 10 µM, first compound 3 µM): 8.09%

**Q.** Which IC50 (second compound 0.1 µM) does the source give for Cn1ncnc1C1c2n[nH]c(=O)c3cc(F)cc(c23)NC1c1ccc(F)cc1 (stereo not given) + Cc1cncc(-c2nc(NCCc3c[nH]c4ccccc34)c3ncn(C(C)C)c3n2)c1 here?
**A.** Its IC50 is > 100 nM.

**Q.** And the IC50 (second compound 0.316 µM)?
**A.** The IC50 was > 100 nM.

**Q.** What about the IC50 (second compound 1 µM) of the same compound?
**A.** Its IC50 is > 100 nM.

**Q.** And the IC50 (second compound 3.16 µM)?
**A.** Its IC50 is > 100 nM.

**Q.** What about the IC50 (second compound 10 µM) of the same compound?
**A.** The IC50 was < 0.316 nM.

**Q.** And the viability, T/C (second compound 0.1 µM, first compound 0.000316 µM)?
**A.** The viability, T/C was 94.1%.

**Q.** What about the viability, T/C (second compound 0.1 µM, first compound 0.001 µM) of the same compound?
**A.** Its viability, T/C is 93.8%.

**Q.** What about the viability, T/C (second compound 0.1 µM, first compound 0.00316 µM) of the same compound?
**A.** Its viability, T/C is 99.8%.

**Q.** What about the viability, T/C (second compound 0.1 µM, first compound 0.01 µM) of the same compound?
**A.** The viability, T/C was 107%.

**Q.** What about the viability, T/C [1] of the same compound?
**A.** The viability, T/C was 94.7%.

**Q.** What about the viability, T/C [2] of the same compound?
**A.** Its viability, T/C is 76.3%.

**Q.** What about the viability, T/C (second compound 0.316 µM, first compound 0.000316 µM) of the same compound?
**A.** Its viability, T/C is 98.1%.

**Q.** And the viability, T/C (second compound 0.316 µM, first compound 0.001 µM)?
**A.** Its viability, T/C is 108%.

**Q.** And the viability, T/C (second compound 0.316 µM, first compound 0.00316 µM)?
**A.** The viability, T/C was 104%.

**Q.** And the viability, T/C (second compound 0.316 µM, first compound 0.01 µM)?
**A.** Its viability, T/C is 92.2%.

**Q.** And the viability, T/C [7]?
**A.** Its viability, T/C is 99.4%.

**Q.** And the viability, T/C [8]?
**A.** The viability, T/C was 71.8%.

**Q.** What about the viability, T/C (second compound 1 µM, first compound 0.000316 µM) of the same compound?
**A.** The viability, T/C was 104%.

**Q.** And the viability, T/C (second compound 1 µM, first compound 0.001 µM)?
**A.** Its viability, T/C is 110%.

**Q.** What about the viability, T/C (second compound 1 µM, first compound 0.00316 µM) of the same compound?
**A.** The viability, T/C was 105%.

**Q.** And the viability, T/C (second compound 1 µM, first compound 0.01 µM)?
**A.** Its viability, T/C is 101%.

**Q.** What about the viability, T/C [13] of the same compound?
**A.** Its viability, T/C is 74.3%.

**Q.** What about the viability, T/C [14] of the same compound?
**A.** The viability, T/C was 66.8%.

**Q.** And the viability, T/C (second compound 3.16 µM, first compound 0.000316 µM)?
**A.** The viability, T/C was 101%.

**Q.** And the viability, T/C (second compound 3.16 µM, first compound 0.001 µM)?
**A.** The viability, T/C was 86.7%.

**Q.** And the viability, T/C (second compound 3.16 µM, first compound 0.00316 µM)?
**A.** Its viability, T/C is 104%.

**Q.** And the viability, T/C (second compound 3.16 µM, first compound 0.01 µM)?
**A.** The viability, T/C was 64.8%.

**Q.** And the viability, T/C [19]?
**A.** Its viability, T/C is 69.8%.

**Q.** And the viability, T/C [20]?
**A.** The viability, T/C was 71.5%.

**Q.** What about the viability, T/C (second compound 10 µM, first compound 0.000316 µM) of the same compound?
**A.** The viability, T/C was 15.3%.

**Q.** What about the viability, T/C (second compound 10 µM, first compound 0.001 µM) of the same compound?
**A.** Its viability, T/C is 12%.

**Q.** And the viability, T/C (second compound 10 µM, first compound 0.00316 µM)?
**A.** The viability, T/C was 14.2%.

**Q.** And the viability, T/C (second compound 10 µM, first compound 0.01 µM)?
**A.** The viability, T/C was 11.5%.

**Q.** What about the viability, T/C [25] of the same compound?
**A.** Its viability, T/C is 12.1%.

**Q.** And the viability, T/C [26]?
**A.** Its viability, T/C is 14.5%.

**Q.** What does the source list for NS(=O)(=O)OCC1CC(n2ccc3c(NC4CCc5ccccc54)ncnc32)CC1O (stereo not given) + Cc1cncc(-c2nc(NCCc3c[nH]c4ccccc34)c3ncn(C(C)C)c3n2)c1?
**A.** IC50 (second compound 0.1 µM): 2330 nM; IC50 (second compound 0.316 µM): 2320 nM; IC50 (second compound 1 µM): 2370 nM; IC50 (second compound 3.16 µM): 1510 nM; IC50 (second compound 10 µM): < 31.6 nM; viability, T/C [1]: 130%; viability, T/C [2]: 150%; viability, T/C [3]: 67.3%; viability, T/C [4]: 107%; viability, T/C [5]: 29.7%; viability, T/C [6]: 29.1%; viability, T/C [7]: 141%; viability, T/C [8]: 161%; viability, T/C [9]: 56.1%; viability, T/C [10]: 124%; viability, T/C [11]: 24%; viability, T/C [12]: 23.6%; viability, T/C [13]: 167%; viability, T/C [14]: 154%; viability, T/C [15]: 62%; viability, T/C [16]: 84.6%; viability, T/C [17]: 27.9%; viability, T/C [18]: 27%; viability, T/C [19]: 132%; viability, T/C [20]: 153%; viability, T/C [21]: 59.8%; viability, T/C [22]: 86.4%; viability, T/C [23]: 20.4%; viability, T/C [24]: 20.6%; viability, T/C [25]: 27.1%; viability, T/C [26]: 15.2%; viability, T/C [27]: 10.5%; viability, T/C [28]: 11.1%; viability, T/C [29]: 5.02%; viability, T/C [30]: 5.87%

Source: PubChem BioAssay AID1919009 (Molecular Pharmacology Branch, DTP, NCI, 2023)
